Data set [1] relates to BT-474 human breast cancer xenograft model. The data set can be described thus: In vivo antitumor efficacy in cancer xenograft mouse model (intratumoral injection, tumor volume). On the set-up: species or system Balb/c nude mice. To be noted: alone; Doxorubicin 2 mg/kg; TLRA1 agonist 6 nmol/mL (0.3 nmol). As for the experimental part:
The antitumor efficacy of the drug was assessed by monitoring changes in tumor volume following administration. Cdex@TLRA1 and Cdex@TLRB1 were administered in a cancer xenograft mouse model to evaluate antitumor immune responses and subsequent tumor cell death.
Balb/c nude mice (6 weeks old) were used to establish a BT-474 human breast cancer xenograft model for in vivo efficacy evaluation. Approximately 1 × 10^6 BT-474 breast cancer cells were mixed with Matrigel at a 1:1 volume ratio and subcutaneously implanted into the dorsal flank of each mouse in a volume of approximately 100 µL.
Once tumor volumes reached approximately 50 mm^3, Cdex@TLRA1 and Cdex@TLRB1 were directly injected into the tumor masses, and tumor growth was monitored over a 2-week period to evaluate drug efficacy. The test substances were administered on days 0, 4, 7, 12, and 15 (see FIG. 18a). To enhance antitumor effects, doxorubicin was administered to all groups except the negative control group on days 1 and 9. A separate "doxorubicin only" group was included for comparative purposes (see FIG. 18b and Table 6).

The subject of data set [2] is cancer cells. The settings on record: cited from earlier work.
A short description of data set [3]: Shoulder MR arthrography image quality assessment, clinical comparative study NEMO-103 vs GBCA. Type of data set: in vivo, humans. The settings on record: supine position, over time. On the procedure: FIGS. 25 and 26 illustrate the phase design and image quality assessment method of a clinical comparative study between NEMO-103, a dextran-crosslinked T1 MRI contrast agent, and Dotarem®, a representative clinical gadolinium-based contrast agent (GBCA) for T1 MRI. Phase I refers to MR arthrography (MRA) images acquired within 30 minutes after contrast agent administration. Phase II refers to MRA images acquired between 30 and 60 minutes post-administration, and Phase III refers to MRA images acquired between 110 and 130 minutes post-administration. In Comparison 1, no quantitative or qualitative differences were observed between NEMO-103-based MRA images acquired during Phase I and Phase II (FIG. 27). […] In Comparison 3, which compared NEMO-103-based MRA images from Phase II with GBCA-based MRA images, more prominent differences were observed (FIG. 29).
Amid growing safety concerns surrounding gadolinium-based contrast agents (GBCAs), iron (Fe)-based alternatives have emerged as a subject of active investigation. The present example evaluates the efficacy of NEMO-103 in comparison with a GBCA by assessing contrast-to-noise ratio (CNR) and MR arthrography (MRA) image quality. […] Both contrast agents effectively delineated key anatomical structures, including tissue contrast, sharpness, rotator cuff tendons, labral structures, and adjacent cartilage. […]

The conditions of data set [4]: stated in discussion, according to current reports; cited from earlier work.
Data set [5] in a line: Phantom study, 3T MRI scanner (relaxivity). On the procedure: The measured r1 and r2 relaxivity values of NEMO-103 were 2.0 mM^-1s^-1 and 2.3 mM^-1s^-1, respectively (FIGS. 24d and 24e). The r2/r1 ratio, which is an important parameter for T1 MRI contrast agents, was calculated to be 1.15. […] For comparison, the measured r1 and r2 values of Dotarem® were 4.7 mM^-1s^-1 and 5.2 mM^-1s^-1, respectively, resulting in an r2/r1 ratio of 1.11.

Consider `COc1cccc2c1C(=O)c1c(O)c3c(c(O)c1C2=O)C[C@@](O)(C(=O)CO)C[C@@H]3O[C@H]1C[C@H](N)[C@H](O)[C@H](C)O1` [Doxorubicin], for which, in data set [1], the tumor growth rate entry was “reduction in tumor growth rate” and the tumor size result is “no significant decrease in tumor size”.

For `CC[C@@]1(O)C(=O)OCc2c1cc1n(c2=O)Cc2c-1nc1cc(F)c(C)c3c1c2[C@@H](N)CC3` [DXd, exatecan], in data set [2], the “activity in cancer cells compared to SN-38” value was “approximately 10 fold”.

As to `CNC[C@H](O)[C@@H](O)[C@H](O)[C@H](O)CO.O=C([O-])CN1CCN(CC(=O)[O-])CCN(CC(=O)O)CCN(CC(=O)[O-])CC1.[Gd+3]` [Dotarem], the “incidence of axillary pouch obliteration compared to NEMO-103” value in data set [3] is reported as “relatively higher incidence”. The hydrodynamic size in data set [4] is under 1 nm. Moreover, the r1 relaxivity in data set [5] was 4.7 mM⁻¹ s⁻¹.

The values are drawn from EP4663206A1, “NEXT-GENERATION ADC LINKER PLATFORM TECHNOLOGY AND POLYSACCHARIDE CROSS-LINKED COLLOIDAL PARTICLE-DRUG CONJUGATE” (Inventera Inc., priority 2023, dated 2024).
